Among the targets are Cytochrome P450 2C9 (Homo sapiens, UniProt P11712); Cytochrome P450 2D6 (Homo sapiens, UniProt P10635); Cytochrome P450 3A4 (Homo sapiens, UniProt P08684).
Assay [1] has as its target T1, Short transient receptor potential channel 4 (Mus musculus, UniProt Q9QUQ5).
T1 sequence (Q9QUQ5 whole entry): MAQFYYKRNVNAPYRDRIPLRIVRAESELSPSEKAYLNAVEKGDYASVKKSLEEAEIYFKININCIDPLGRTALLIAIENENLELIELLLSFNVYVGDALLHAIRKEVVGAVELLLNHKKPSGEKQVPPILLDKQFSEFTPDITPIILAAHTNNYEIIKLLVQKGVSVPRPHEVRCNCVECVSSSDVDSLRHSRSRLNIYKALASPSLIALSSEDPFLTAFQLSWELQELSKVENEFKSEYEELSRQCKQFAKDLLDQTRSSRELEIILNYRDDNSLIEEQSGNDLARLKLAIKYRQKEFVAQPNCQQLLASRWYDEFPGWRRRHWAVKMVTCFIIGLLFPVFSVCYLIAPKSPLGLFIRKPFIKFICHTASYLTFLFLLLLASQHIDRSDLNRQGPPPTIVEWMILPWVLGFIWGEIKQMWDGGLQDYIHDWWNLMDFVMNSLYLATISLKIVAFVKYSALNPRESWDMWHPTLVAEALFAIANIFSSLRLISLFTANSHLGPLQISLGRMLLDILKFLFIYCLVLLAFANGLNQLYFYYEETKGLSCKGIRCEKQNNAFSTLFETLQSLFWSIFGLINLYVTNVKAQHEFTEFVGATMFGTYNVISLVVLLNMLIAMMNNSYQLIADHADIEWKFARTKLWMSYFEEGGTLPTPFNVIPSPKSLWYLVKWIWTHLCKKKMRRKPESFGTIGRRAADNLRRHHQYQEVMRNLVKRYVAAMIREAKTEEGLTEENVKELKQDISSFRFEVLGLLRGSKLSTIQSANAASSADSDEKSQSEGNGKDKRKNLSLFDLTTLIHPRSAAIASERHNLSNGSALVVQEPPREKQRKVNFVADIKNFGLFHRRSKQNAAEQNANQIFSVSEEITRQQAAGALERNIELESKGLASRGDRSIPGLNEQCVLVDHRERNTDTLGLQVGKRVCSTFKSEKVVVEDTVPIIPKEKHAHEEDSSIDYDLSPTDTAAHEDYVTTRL
Nature of the assay: mouse TRPC4 channel activators, dose response, cell-based, HEK293 TRPC4/mu-opioid, Fluo-4 calcium (AID 434937). The assay is classed as functional.

In assay [2] the target is T2, RNA-binding protein pos-1 (Caenorhabditis elegans, UniProt G5EF15).
T2 sequence (G5EF15 whole entry): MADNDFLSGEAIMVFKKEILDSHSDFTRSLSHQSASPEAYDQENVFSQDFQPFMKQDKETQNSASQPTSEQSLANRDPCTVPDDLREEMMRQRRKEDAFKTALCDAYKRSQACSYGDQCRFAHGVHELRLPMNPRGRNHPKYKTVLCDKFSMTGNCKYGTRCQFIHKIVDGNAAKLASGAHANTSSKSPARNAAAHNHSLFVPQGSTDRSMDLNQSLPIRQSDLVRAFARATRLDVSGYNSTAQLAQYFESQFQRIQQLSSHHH
The experiment in a line: inhibitors of POS-1/mex-3 RNA binding, dose response, biochemical, fluorescence polarization (AID 1964).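 Also: purified POS-1 fused to maltose binding protein made in E. coli; potency of compounds blocking POS-1 binding to fluorescent RNA.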 Background: In fluorescence polarisation assays a small probe gives low polarisation when free and higher when bound to something large.

Assay [3] addresses T3, Polyadenylate-binding protein 1 (Homo sapiens, UniProt P11940). Nature of the assay: PABP1 MLLE–PAM2 binding inhibitor potency, dose response, biochemical, fluorescence polarization, FITC-PAM2 peptide (AID 602259). Format: functional. Conditions: read-out: IC50_Mean.
In assay [4] the target is T3, Polyadenylate-binding protein 1. The experiment in a line: PABP1 MLLE–PAM2 interaction inhibitors, dose response, miRNA deadenylation inhibitor project, biochemical, fluorescence polarization, Cy5-PAM2 peptide, secondary (AID 602260). Conditions: read-out: IC50_Mean. The assay is classed as functional.
In assay [5] the target is T4, Zinc finger protein mex-5 (Caenorhabditis elegans, UniProt Q9XUB2).
T4 sequence (Q9XUB2 whole entry): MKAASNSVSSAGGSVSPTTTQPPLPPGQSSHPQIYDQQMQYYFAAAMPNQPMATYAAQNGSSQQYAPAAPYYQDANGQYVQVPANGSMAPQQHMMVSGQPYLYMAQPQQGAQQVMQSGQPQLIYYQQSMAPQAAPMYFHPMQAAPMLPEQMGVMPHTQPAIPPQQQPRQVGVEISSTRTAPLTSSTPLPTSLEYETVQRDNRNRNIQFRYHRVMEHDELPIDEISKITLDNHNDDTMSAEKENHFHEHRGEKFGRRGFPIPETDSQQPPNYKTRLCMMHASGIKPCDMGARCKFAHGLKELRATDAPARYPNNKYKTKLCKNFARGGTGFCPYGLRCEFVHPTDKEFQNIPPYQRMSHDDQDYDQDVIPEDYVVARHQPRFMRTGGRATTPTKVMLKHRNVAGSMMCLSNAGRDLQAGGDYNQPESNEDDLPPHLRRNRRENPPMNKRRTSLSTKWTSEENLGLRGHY
Nature of the assay: MEX-5/TCR-2 RNA interaction inhibitors, dose response, biochemical, C. elegans, fluorescence polarization (AID 1960).

Assay [6] has as its target T5, Rac GTPase-activating protein 1 (Homo sapiens, UniProt Q9H0H5).
T5 sequence (Q9H0H5 whole entry): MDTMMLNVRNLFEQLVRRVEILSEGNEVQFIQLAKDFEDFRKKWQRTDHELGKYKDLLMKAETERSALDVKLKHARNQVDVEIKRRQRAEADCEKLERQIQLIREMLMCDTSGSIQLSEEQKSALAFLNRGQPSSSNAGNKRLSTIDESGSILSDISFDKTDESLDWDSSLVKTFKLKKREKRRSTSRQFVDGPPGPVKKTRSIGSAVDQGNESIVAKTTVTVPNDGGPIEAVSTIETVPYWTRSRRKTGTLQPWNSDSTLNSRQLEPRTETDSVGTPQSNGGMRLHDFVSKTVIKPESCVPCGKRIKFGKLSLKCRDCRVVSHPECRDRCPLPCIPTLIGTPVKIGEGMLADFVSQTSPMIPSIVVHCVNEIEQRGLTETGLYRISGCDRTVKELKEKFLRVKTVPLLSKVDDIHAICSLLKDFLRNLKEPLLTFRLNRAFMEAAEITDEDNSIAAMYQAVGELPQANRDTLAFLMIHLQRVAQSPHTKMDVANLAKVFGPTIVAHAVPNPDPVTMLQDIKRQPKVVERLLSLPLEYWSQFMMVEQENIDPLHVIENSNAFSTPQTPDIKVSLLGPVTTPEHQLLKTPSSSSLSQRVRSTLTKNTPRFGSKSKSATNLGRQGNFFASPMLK
Nature of the assay: MgcRacGAP GTPase-activating activity inhibitors, confirmation, biochemical, ADP Hunter fluorescence, primary and confirmatory (AID 624330). Format: functional.

Assay [7] concerns the target T6, Histone-lysine N-methyltransferase NSD2 (Homo sapiens, UniProt O96028).
T6 sequence (O96028 whole entry): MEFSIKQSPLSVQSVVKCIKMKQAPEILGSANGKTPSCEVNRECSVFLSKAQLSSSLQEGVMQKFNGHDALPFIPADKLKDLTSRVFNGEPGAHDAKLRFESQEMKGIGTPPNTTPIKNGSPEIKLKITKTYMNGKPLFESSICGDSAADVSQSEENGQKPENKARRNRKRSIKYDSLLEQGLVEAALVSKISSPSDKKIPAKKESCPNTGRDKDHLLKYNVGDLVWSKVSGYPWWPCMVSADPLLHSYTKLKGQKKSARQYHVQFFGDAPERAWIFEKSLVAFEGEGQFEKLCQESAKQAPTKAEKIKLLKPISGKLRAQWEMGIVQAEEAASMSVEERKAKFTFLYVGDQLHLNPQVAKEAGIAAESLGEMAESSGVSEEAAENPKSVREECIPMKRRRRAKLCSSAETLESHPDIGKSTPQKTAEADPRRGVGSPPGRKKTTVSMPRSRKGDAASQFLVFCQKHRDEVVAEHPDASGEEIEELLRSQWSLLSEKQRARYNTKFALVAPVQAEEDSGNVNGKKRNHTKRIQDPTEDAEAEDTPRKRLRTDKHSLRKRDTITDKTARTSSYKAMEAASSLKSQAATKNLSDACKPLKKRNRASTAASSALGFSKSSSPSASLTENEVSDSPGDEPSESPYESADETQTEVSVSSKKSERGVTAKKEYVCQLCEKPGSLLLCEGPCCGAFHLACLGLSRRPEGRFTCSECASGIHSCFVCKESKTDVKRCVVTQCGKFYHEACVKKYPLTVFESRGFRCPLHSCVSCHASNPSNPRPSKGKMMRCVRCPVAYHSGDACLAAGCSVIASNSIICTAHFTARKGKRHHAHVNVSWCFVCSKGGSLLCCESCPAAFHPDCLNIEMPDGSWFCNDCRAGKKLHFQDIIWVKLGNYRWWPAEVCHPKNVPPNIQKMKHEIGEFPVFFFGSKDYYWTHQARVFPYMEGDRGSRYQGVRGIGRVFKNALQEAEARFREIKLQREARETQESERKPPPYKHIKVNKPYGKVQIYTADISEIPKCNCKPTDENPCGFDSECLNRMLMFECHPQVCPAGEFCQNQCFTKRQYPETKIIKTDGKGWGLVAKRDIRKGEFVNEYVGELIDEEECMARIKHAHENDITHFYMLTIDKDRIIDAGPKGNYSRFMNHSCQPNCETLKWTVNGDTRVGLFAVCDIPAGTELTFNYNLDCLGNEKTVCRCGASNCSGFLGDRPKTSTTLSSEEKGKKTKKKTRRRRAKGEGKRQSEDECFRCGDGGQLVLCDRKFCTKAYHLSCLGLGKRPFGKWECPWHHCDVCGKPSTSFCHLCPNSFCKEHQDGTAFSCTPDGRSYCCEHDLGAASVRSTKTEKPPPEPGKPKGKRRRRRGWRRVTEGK
Format: biochemical.

A further assay deals with Cytochrome P450 2C19 (Homo sapiens, UniProt P33261). Nature of the assay: Cytochrome panel assay with activity outcomes. Panel member name: p450-cyp2c19 Compounds with AC50 equal or less than 10 uM are considered active. The assay is classed as functional. Conditions: read-out: AC50.
Cytochrome P450 2C19, sequence (P33261 whole entry): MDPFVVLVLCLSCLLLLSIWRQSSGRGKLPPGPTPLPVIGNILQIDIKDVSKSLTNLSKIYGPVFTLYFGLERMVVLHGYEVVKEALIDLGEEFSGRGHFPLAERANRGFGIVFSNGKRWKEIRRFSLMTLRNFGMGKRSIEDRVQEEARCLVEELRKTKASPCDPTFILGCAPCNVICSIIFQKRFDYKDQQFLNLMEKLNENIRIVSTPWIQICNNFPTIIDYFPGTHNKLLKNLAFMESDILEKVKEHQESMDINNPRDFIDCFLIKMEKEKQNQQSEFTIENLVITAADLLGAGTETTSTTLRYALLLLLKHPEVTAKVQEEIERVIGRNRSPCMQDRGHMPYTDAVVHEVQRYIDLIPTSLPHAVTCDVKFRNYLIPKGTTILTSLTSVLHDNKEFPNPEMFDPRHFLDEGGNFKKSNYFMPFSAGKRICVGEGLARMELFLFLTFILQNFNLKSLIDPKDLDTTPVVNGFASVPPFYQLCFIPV
Assay [8] in a line: microbe, parasite or virus in culture. Format: functional. Conditions: Mycobacterium tuberculosis.
A further assay in a line: cells. Format: functional.
Another assay has as its target T7, Cytochrome P450 1A2 (Homo sapiens, UniProt P05177).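 Also: PubChem cytochrome P450 panel assay, CYP1A2 panel member.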
T7 sequence (P05177 whole entry): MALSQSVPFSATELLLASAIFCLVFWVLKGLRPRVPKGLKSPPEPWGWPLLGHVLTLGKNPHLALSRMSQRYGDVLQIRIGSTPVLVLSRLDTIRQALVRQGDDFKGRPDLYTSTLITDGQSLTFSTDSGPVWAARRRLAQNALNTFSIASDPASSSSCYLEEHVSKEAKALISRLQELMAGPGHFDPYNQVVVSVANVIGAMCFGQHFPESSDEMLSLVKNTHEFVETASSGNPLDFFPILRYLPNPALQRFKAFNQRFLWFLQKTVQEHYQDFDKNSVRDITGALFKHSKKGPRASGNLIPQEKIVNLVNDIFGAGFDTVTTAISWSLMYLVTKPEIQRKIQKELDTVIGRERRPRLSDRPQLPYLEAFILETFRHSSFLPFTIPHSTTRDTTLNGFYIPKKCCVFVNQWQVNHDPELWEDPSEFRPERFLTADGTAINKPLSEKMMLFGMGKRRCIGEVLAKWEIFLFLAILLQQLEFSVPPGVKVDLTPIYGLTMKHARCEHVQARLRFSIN

Molecules are shown by their SMILES. The source made the active and inactive calls. Some results are limits rather than exact numbers.

Cytochrome P450 2D6, sequence (P10635 whole entry): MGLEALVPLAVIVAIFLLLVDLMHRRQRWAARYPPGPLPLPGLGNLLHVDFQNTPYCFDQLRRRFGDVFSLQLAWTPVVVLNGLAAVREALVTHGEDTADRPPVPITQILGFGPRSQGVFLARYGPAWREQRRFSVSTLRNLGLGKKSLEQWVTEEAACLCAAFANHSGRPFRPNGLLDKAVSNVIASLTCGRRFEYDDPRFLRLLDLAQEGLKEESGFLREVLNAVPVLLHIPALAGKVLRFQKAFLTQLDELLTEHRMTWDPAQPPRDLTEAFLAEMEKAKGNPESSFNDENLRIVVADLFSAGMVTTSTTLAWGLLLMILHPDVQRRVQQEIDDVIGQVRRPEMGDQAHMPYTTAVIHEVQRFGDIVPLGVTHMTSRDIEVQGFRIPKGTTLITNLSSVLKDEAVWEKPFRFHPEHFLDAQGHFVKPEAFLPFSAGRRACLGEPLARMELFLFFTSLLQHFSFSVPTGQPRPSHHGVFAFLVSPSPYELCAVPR
T3 sequence (P11940 whole entry): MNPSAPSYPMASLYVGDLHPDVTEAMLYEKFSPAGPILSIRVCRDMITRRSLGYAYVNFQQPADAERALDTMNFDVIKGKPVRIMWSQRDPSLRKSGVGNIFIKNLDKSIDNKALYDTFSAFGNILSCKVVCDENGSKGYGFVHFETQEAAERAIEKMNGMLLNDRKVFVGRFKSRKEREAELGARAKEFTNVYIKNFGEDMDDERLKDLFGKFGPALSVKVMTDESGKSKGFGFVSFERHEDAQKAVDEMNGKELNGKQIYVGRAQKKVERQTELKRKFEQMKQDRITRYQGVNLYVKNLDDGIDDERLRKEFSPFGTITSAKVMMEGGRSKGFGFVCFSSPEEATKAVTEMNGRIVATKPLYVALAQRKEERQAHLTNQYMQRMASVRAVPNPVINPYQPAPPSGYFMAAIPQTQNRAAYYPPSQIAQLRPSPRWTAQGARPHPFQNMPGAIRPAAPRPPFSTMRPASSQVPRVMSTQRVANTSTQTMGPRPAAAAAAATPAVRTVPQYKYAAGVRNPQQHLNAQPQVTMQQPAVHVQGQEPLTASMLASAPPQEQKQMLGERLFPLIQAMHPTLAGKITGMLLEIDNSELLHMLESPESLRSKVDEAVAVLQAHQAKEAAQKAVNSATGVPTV
Cytochrome P450 2C9, sequence (P11712 whole entry): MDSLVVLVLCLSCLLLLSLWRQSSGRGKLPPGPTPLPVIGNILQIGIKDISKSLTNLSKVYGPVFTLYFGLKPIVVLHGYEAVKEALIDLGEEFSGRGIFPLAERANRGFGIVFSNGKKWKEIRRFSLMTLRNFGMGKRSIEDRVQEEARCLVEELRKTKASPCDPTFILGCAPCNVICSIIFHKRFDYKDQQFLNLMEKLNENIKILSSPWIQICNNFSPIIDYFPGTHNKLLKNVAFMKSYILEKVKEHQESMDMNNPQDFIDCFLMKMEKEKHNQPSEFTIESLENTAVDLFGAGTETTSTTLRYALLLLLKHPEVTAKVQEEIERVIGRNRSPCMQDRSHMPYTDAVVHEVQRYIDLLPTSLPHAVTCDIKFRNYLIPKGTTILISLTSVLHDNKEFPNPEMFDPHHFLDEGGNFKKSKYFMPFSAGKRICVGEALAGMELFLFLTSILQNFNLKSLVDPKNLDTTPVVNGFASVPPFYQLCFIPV
Cytochrome P450 3A4, sequence (P08684 whole entry): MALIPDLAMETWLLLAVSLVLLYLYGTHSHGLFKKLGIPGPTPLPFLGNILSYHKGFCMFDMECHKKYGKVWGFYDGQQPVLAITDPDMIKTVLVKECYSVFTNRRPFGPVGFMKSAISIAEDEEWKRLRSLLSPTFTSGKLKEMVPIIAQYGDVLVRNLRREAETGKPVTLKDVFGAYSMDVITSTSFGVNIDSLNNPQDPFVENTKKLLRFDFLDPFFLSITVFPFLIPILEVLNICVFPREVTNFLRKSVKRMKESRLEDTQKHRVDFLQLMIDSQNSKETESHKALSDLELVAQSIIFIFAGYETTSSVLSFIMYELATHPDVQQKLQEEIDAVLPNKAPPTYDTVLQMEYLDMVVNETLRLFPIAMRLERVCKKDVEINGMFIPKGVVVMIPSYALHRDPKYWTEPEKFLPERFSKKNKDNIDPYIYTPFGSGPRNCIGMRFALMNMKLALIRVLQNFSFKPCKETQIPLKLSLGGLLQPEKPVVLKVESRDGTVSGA

For `COc1ccc(-c2nc(CSCC(=O)NC3CCN(Cc4ccccc4)CC3)c(C)o2)cc1OC`, the EC50 in assay [1] is 1.5 µM (active).

As to `CC1C2C(C)N(C)C(=O)N(C)C2N(C)C(=O)N1C` (configuration not stated), the 50% effective concentration (EC50) in assay [2] is 25 µM (active); in [5] it was 18.5 µM (active). The IC50 in assay [3] is 29.1 µM (inactive); in assay [4], > 66 µM (inactive). For the compound `C=CCN=C(NC#N)SCc1ccccc1`, the figures for the AC50 on Cytochrome P450 2C9 and at Cytochrome P450 2D6 were 15.8 µM (inconclusive) and 22.4 µM (inconclusive), respectively. On to `COc1ccccc1CCn1c(=O)c(-c2cccc(Cl)c2)nc2cncnc21`, for which, on Cytochrome P450 2D6, the concentration at half-maximal activity (AC50) is 31.6 µM (inconclusive). Still for that read-out and setting: with `C[C@@H]1CC[C@@H]2C(=O)N3[C@@H](CC[C@@H](C)[C@@H]3c3ccc(-c4ccco4)cc3)C(=O)N2[C@H]1c1ccc(-c2ccco2)cc1` the figure was 6.31 µM (inconclusive). Consider `Cc1ccc(NC(=O)CNCC(c2ccccc2)N(C)C)cc1F` (configuration not stated), for which, in assay [1], the EC50 was 0.596 µM (active). In [6], the IC50 was 70.8 µM (active). Take `N#Cc1cccc(-c2nc(NCc3cccs3)c3ccccc3n2)c1`: at Cytochrome P450 2D6, the AC50 is 5.01 µM (inconclusive). For `CN(C)CCCN(C(=O)c1ccc(S(=O)(=O)N2CCCCCC2)cc1)c1nc2ccc(F)cc2s1`, the EC50 in [1] was 4.22 µM (active). On to `CCN(CC)CCC(=O)c1ccc(F)cc1`, for which the AC50 in assay [7] is > 20 µM (inactive). As for `S=C(NCCc1ccccn1)NC1CCCCC1`, the EC50 in assay [1] was 6.68 µM (active). In the case of `COCCn1c(=O)c(-c2ccccc2)nc2cnc(N(C)C)nc21`, the AC50 was 2 µM (inconclusive) on Cytochrome P450 2C19, 39.8 µM (inconclusive) at Cytochrome P450 3A4 and 12.6 µM (inconclusive) at Cytochrome P450 2D6. For `Cc1c(C(=O)N(C)C)sc2nc(-c3ccccn3)nc(O)c12`, in assay [8], the CC50 is > 40 µM (active). In addition, the IC50 in the assay “cells” is 9.8 µM (active). As to `COC(=O)COc1cccc(/C=N/NC(=O)CCSc2ccccc2)c1`, the IC50 in the assay “cells” was 4.13 µM (active). On to `CCOc1cc(/C=N/NC(=O)c2cccc([N+](=O)[O-])c2)ccc1OS(=O)(=O)c1ccccc1`, for which the AC50 on Cytochrome P450 1A2 is 7.08 µM (inconclusive); at Cytochrome P450 3A4, 8.91 µM (inconclusive); on Cytochrome P450 2C9, 11.2 µM (inconclusive); at Cytochrome P450 2D6 it was 1 µM (inconclusive).

Consider `COc1cc(/C=N/NC(=O)c2ccncc2)ccc1OC(=O)c1cccc(F)c1`, for which the IC50 in the assay “cells” is 0.48 µM (active). As for `C[C@H]1OC[C@@H](C[N+](C)(C)C)O1`, the EC50 in assay [1] is 0.188 µM (active).

The EC50 is the concentration at which the effect is half-maximal. Usually AC50 stands for the concentration at which the activity in the assay is half-maximal.

The record behind these values is ChEMBL document CHEMBL1201862, “PubChem BioAssay data set” (2004).
